Test systems include BT-549 breast; OVCAR-3 ovarian; OVCAR-5 ovarian; SK-MEL-5 melanoma; HCT-116 colon; MALME-3M melanoma; TK-10 renal; LOX IMVI melanoma; SK-MEL-28 melanoma; MCF7 breast; DU-145 prostate; MDA-MB-231 breast; HOP-62 NSCLC; M14 melanoma; HOP-92 NSCLC; U251 CNS; UACC-257 melanoma; RPMI-8226 leukemia; SF-539 CNS; RXF 393 renal.
What all share (test): growth of human tumour cells (NCI), 48 h

Molecules are shown by their SMILES.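 Step 1: Grow cells in 96-well plates. Step 2: Expose to compound for 48 hours at 5 concentrations. Step 3: Interpolate endpoints linearly; if unreached, use highest concentration. TGI denotes the concentration required for complete inhibition of growth.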 Where only a bound is given, the exact number is not on record here.

These results are taken from PubChem BioAssay (NCI).

As for `CC(=O)OCC(OC(C)=O)C1C[C@H]2O[C@@H]3[C@H](C[C@H]2O1)O[C@@]1(C[C@@H]3C)C[C@H](C)[C@@H]2O[C@]3(C[C@@H]2O1)C[C@H]1O[C@H]2[C@H](C)[C@H]4OC(=O)CC5CC[C@H]6OC7[C@H]8O[C@]9(CC[C@H]%10CC(O)(CO)[C@H](CC[C@H]%11C[C@@H](C)C(O)(CO)C(C[C@@H]4O[C@H]2C[C@H]1O3)O%11)O%10)CC8O[C@@H]7[C@@H](O9)[C@H]6O5` (stereo not given in full), the TGI in the test with BT-549 breast is 0.00923 µM; in the test on OVCAR-3 ovarian, greater than 1 µM; in the test with OVCAR-5 ovarian it was greater than 1 µM; in the test on SK-MEL-5 melanoma it was greater than 1 µM; in the test with HCT-116 colon, greater than 0.452 µM; with MALME-3M melanoma, greater than 1 µM. Also, the TGI in the test with TK-10 renal was greater than 1 µM; in the test with LOX IMVI melanoma, greater than 0.414 µM; in the test on SK-MEL-28 melanoma, greater than 1 µM; with MCF7 breast, greater than 1 µM; in the test on DU-145 prostate, 0.0688 µM; with MDA-MB-231 breast, greater than 1 µM. Further, the TGI in the test on HOP-62 NSCLC, in the test on M14 melanoma, in the test on HOP-92 NSCLC, in the test with U251 CNS and with UACC-257 melanoma was greater than 1 µM in each case.
In the case of `COc1ccc2cc(NC(=O)N/N=C\c3ccc(Cl)cc3)ccc2c1`, the TGI in the test with BT-549 breast, in the test with OVCAR-3 ovarian, in the test with OVCAR-5 ovarian, in the test with RPMI-8226 leukemia, in the test with HCT-116 colon and with MALME-3M melanoma was greater than 100 µM throughout. In addition, the TGI in the test on TK-10 renal, with LOX IMVI melanoma, with SK-MEL-28 melanoma, in the test with MCF7 breast, in the test with DU-145 prostate and in the test on MDA-MB-231 breast was greater than 100 µM in each case. For the same compound, the TGI with HOP-62 NSCLC, with SF-539 CNS, with M14 melanoma, in the test on HOP-92 NSCLC, in the test with U251 CNS and with UACC-257 melanoma was greater than 100 µM each time.
On to `CCC(C)C(=O)OC1CC2(C)C(c3ccoc3)OC(=O)CC23OC2(C)OC34C(OC(=O)C(C)C)C3(O)C(OC(=O)C5(C)OC5C)C5(C)CC3(O)C(C)(C5CC(=O)OC)C14O2` (stereo not given), for which the TGI is greater than 100 µM in the test with BT-549 breast; greater than 100 µM in the test with OVCAR-5 ovarian; 87 µM in the test with SK-MEL-5 melanoma; greater than 100 µM in the test with HCT-116 colon; greater than 100 µM in the test with MALME-3M melanoma; greater than 100 µM in the test with TK-10 renal. Moreover, the TGI with LOX IMVI melanoma was greater than 100 µM; in the test on SK-MEL-28 melanoma it was greater than 100 µM; with MCF7 breast, 66.1 µM; in the test on DU-145 prostate, greater than 100 µM; in the test with MDA-MB-231 breast it was greater than 100 µM; in the test on SF-539 CNS, 79.6 µM. The TGI in the test with M14 melanoma, with HOP-92 NSCLC, with U251 CNS and in the test on UACC-257 melanoma was greater than 100 µM throughout.
Consider `Cc1cn(C(C)OCCN2C(=O)c3ccccc3C2=O)c(=O)[nH]c1=O` (stereo not given), for which the TGI in the test with BT-549 breast, with OVCAR-3 ovarian, with OVCAR-5 ovarian, in the test with RPMI-8226 leukemia, in the test on SK-MEL-5 melanoma and in the test with HCT-116 colon was greater than 100 µM each time. Moreover, the TGI in the test with LOX IMVI melanoma, in the test on SK-MEL-28 melanoma, in the test on MCF7 breast, in the test with DU-145 prostate, with MDA-MB-231 breast and in the test with HOP-62 NSCLC was greater than 100 µM throughout. For the same compound, the TGI in the test with SF-539 CNS, in the test with M14 melanoma, in the test on HOP-92 NSCLC, with U251 CNS, in the test on RXF 393 renal and in the test on UACC-257 melanoma was greater than 100 µM throughout.
Turning to `COC(=O)C1=Nc2c(C)nn(-c3ccccc3)c2N=C(c2ccc([N+](=O)[O-])cc2)C1`, the TGI in the test with BT-549 breast, in the test on OVCAR-3 ovarian, with OVCAR-5 ovarian, in the test with RPMI-8226 leukemia, with SK-MEL-5 melanoma and in the test with HCT-116 colon was greater than 10 µM each time. Further, the TGI with MALME-3M melanoma, in the test on TK-10 renal, in the test with LOX IMVI melanoma, with SK-MEL-28 melanoma, with MCF7 breast and in the test on DU-145 prostate was greater than 10 µM in each case. The TGI with MDA-MB-231 breast, with HOP-62 NSCLC, with SF-539 CNS, in the test with M14 melanoma, in the test with HOP-92 NSCLC and in the test with U251 CNS was greater than 10 µM each time. The TGI with UACC-257 melanoma was greater than 10 µM.
For the compound `CN(C)CCn1c(=O)c2ccc(NCCCN(C)CCCNc3ccc4c(=O)n(CCN(C)C)c(=O)n5c6ccc([N+](=O)[O-])cc6c(=O)c3c45)c3c(=O)c4cc([N+](=O)[O-])ccc4n(c1=O)c23`, the TGI worked out at 0.176 µM in the test with BT-549 breast; 1.31 µM in the test with OVCAR-3 ovarian; 1.1 µM in the test with OVCAR-5 ovarian; 0.311 µM in the test with SK-MEL-5 melanoma; 0.118 µM with HCT-116 colon; 0.781 µM in the test on MALME-3M melanoma. The TGI in the test with TK-10 renal turned out to be 1.52 µM; with SK-MEL-28 melanoma, 0.553 µM; in the test on MCF7 breast, 0.608 µM; in the test on DU-145 prostate, 0.39 µM; in the test on MDA-MB-231 breast, 0.125 µM; in the test with HOP-62 NSCLC, 0.842 µM. Moreover, the TGI was 0.851 µM with SF-539 CNS; 0.753 µM in the test on M14 melanoma; 0.198 µM in the test on HOP-92 NSCLC; 0.124 µM in the test with U251 CNS; 2.13 µM with UACC-257 melanoma.
`O=C1C=CC(=O)c2c(O)c(NCCc3ccc(O)cc3)c(Cl)c(O)c21`: the TGI in the test on BT-549 breast, in the test with OVCAR-3 ovarian, with OVCAR-5 ovarian, in the test on RPMI-8226 leukemia, with SK-MEL-5 melanoma and in the test on HCT-116 colon was greater than 10 µM each time. Moreover, the TGI with MALME-3M melanoma, in the test on TK-10 renal, in the test with LOX IMVI melanoma, in the test on MCF7 breast, in the test on DU-145 prostate and with MDA-MB-231 breast was greater than 10 µM throughout. The TGI in the test on HOP-62 NSCLC, with SF-539 CNS, in the test with M14 melanoma, with HOP-92 NSCLC, in the test on U251 CNS and in the test on UACC-257 melanoma was greater than 10 µM in each case.
In the case of `COCC1OC(N2C(=O)NC(=O)[C@@H]3C=C4CCCCC4=C[C@@H]32)C(OC)C1OC` (stereo not given in full), the TGI in the test with BT-549 breast, in the test with OVCAR-3 ovarian, with OVCAR-5 ovarian, in the test on RPMI-8226 leukemia, in the test on HCT-116 colon and in the test with MALME-3M melanoma was greater than 100 µM each time. The TGI with TK-10 renal, in the test with LOX IMVI melanoma, in the test with SK-MEL-28 melanoma, in the test on MCF7 breast, in the test on DU-145 prostate and in the test on MDA-MB-231 breast was greater than 100 µM throughout. The TGI in the test with HOP-62 NSCLC, with SF-539 CNS, in the test on M14 melanoma, with HOP-92 NSCLC, in the test on U251 CNS and in the test on UACC-257 melanoma was greater than 100 µM each time.
On to `CC1(C)OCC2OC3([C@H]4OC(C)(C)O[C@@H]4CO)OC(C)(C)OC3C2O1` (stereo not given in full), for which the TGI in the test on BT-549 breast, in the test with OVCAR-3 ovarian, in the test with OVCAR-5 ovarian, in the test with RPMI-8226 leukemia, in the test with SK-MEL-5 melanoma and with HCT-116 colon was greater than 100 µM in each case. Also, the TGI with LOX IMVI melanoma, in the test with SK-MEL-28 melanoma, in the test with MCF7 breast, in the test with DU-145 prostate, in the test with MDA-MB-231 breast and in the test with HOP-62 NSCLC was greater than 100 µM throughout. Further, the TGI in the test on SF-539 CNS, in the test with M14 melanoma, in the test on HOP-92 NSCLC, in the test with U251 CNS, with RXF 393 renal and in the test with UACC-257 melanoma was greater than 100 µM in each case.
`Brc1cc2nn(-c3ccccc3)nc2c2nonc12`: the TGI with BT-549 breast, in the test on OVCAR-3 ovarian, in the test with OVCAR-5 ovarian, in the test on RPMI-8226 leukemia, in the test on SK-MEL-5 melanoma and with HCT-116 colon was greater than 100 µM throughout. Besides, the TGI in the test on MALME-3M melanoma, with TK-10 renal, in the test with LOX IMVI melanoma, with SK-MEL-28 melanoma, with MCF7 breast and in the test on DU-145 prostate was greater than 100 µM in each case. The TGI with MDA-MB-231 breast, in the test on HOP-62 NSCLC, with SF-539 CNS, in the test with M14 melanoma, in the test on HOP-92 NSCLC and in the test on U251 CNS was greater than 100 µM each time. In the test with UACC-257 melanoma, this compound returned a TGI greater than 100 µM.
Take `Cc1cc2[nH]c3c(C#N)c4c(c(=O)n3c2cc1C)CCCC4`: the TGI in the test on BT-549 breast is greater than 100 µM; with OVCAR-3 ovarian it was greater than 100 µM; with OVCAR-5 ovarian, 32.7 µM; in the test with SK-MEL-5 melanoma, greater than 100 µM; in the test with HCT-116 colon it was greater than 100 µM; in the test with MALME-3M melanoma, greater than 100 µM. Moreover, the TGI in the test with TK-10 renal, in the test on LOX IMVI melanoma, in the test with SK-MEL-28 melanoma, in the test on MCF7 breast, in the test on DU-145 prostate and in the test on MDA-MB-231 breast was greater than 100 µM in each case. For the same compound, the TGI was greater than 100 µM in the test on SF-539 CNS; 27.6 µM with M14 melanoma; greater than 100 µM with HOP-92 NSCLC; greater than 100 µM in the test with U251 CNS; greater than 100 µM in the test with UACC-257 melanoma.
